Read-outs that look alike come from different tables or passages of the source.
Assays:
Assay in all cases: PTP IC50 assay, pNPP or FDP as substrate
Assay type in all cases: biochemical
[1] = molecular target: T1, PTP SHP2 (Homo sapiens, UniProt Q06124); conditions: 25° C.
T1 construct: The catalytic domain was amplified using the following oligonucleotides; made in house; host or cells: Sf-9 insect cells (pFastBac-G2T)
T1 sequence (Q06124 247-517 limits assumed): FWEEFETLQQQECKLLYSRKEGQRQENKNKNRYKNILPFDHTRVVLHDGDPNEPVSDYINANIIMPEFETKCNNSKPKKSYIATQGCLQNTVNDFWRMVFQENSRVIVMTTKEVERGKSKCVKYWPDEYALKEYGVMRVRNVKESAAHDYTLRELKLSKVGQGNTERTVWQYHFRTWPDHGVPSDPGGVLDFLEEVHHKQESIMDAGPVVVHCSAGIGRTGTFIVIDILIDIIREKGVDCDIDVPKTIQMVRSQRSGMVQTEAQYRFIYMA
Experimental: (§1) The following in vitro assay procedure is preferred to determine the level of activity and effect of the different compounds of the present invention on one or more of the PTPs. Similar assays can be designed along the same lines for any PTP using techniques well known in the art.
(§2) The catalytic assays described herein are performed in a 96-well format. The general procedure begins with the determination of PTP optimal pH using a three-component buffer system that minimizes ionic strength variations across a wide range of buffer pH. Next, the Michaelis-Menten constant, or Km, is determined for each specific substrate-PTP system. This Km value is subsequently used as the substrate reaction concentration for compound screening. Finally, the test PTP is exposed to varying concentrations of compound for fifteen minutes and allowed to react with substrate for ten minutes. The results are plotted as percent inhibition versus compound concentration and the IC50 interpolated from the plot.
(§3) All assays were performed using pNPP or FDP as substrate. The optimum pH was determined for each PTP used.
(§4) PTPase activity was assayed at 25° C. in a 100-μl reaction mixture containing an appropriate concentration of pNPP or FDP as substrate. The reaction was initiated by addition of the PTP and quenched after 10 min by addition of 50 μl of IN NaOH. The non-enzymatic hydrolysis of the substrate was corrected by measuring the control without the addition of the enzyme. The amount of p-nitrophenol produced was determined from the absorbance at 410 nm. To determine the kinetic parameter, Km, the initial velocities were measured at various substrate concentrations and the data were fitted to the Michaelis equation where velocity=(Vmax*[S])/(Km+[S]), and [S]=substrate reaction concentration.
(§5) The effect of the compounds on PTP was evaluated at 25° C. using pNPP or FDP as substrate. PTP was pre-incubated for fifteen minutes with various concentrations of compound. Substrate was then added at a fixed concentration (usually equal to the Km previously calculated). After 10 minutes, NaOH was added to stop the reaction. The hydrolysis of pNPP was followed at 410 nm on the Biotek Powerwave 200 microplate scanning spectrophotometer. The percent inhibition was calculated as follows: Percent Inhibition=[(control signal−compound signal)/control signal] ×100%. The IC50 was then determined by interpolation of a percent inhibition versus compound concentration plot.
(§6) Plasmids designed for bacterial GST-PTP fusion protein expression were derived by insertion of PCR-generated human PTP fragments into pGEX vectors (Pharmacia Biotech). Several of these constructs were then used to subclone phosphatases into pFastBac-1for expression in Sf-9 insect cells. Oligonucleotides used for the initial amplification of PTP genes are shown below. The cDNAs were prepared using the Gilbo BRL superscript preamplification system on RNAs purchased from Clontech.
SHP-2 cDNA was used as described earlier (Vogel W., et al.,1993, Science, 259:1611-4). The catalytic domain was amplified using the following oligonucleotides 5′oligo: 5′-[…]-3′ (SEQ ID NO: 2) 3′oligo: 5′-[…]-3′ (SEQ ID NO: 3) and subsequently subcloned into BamH1-Xba-1 sites. It was then ligated into pfas Bac-G2T BamH1-Xba-1 sites.

[2] = molecular target: T2, PTP SIGMA (Homo sapiens, UniProt Q13332); conditions: pNPP or FDP as substrate, 25° C.
T2 construct: made in house; host or cells: E. coli BL-21 (pGEX 6P-1)
T2 sequence (Q13332 1320-1660 limits assumed): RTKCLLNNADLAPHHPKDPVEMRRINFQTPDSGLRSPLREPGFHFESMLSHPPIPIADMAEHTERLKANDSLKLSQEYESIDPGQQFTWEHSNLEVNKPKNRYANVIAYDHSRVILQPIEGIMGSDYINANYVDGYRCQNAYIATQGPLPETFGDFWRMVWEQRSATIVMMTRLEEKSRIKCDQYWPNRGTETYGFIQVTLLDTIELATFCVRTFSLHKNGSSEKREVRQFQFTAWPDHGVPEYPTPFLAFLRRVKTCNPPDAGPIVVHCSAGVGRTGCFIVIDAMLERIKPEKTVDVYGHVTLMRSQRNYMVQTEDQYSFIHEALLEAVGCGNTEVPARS
Experimental: as §1, §2, §3, §4, §5, §6
The PTP Sigma cDNA was amplified from human brain single strand cDNA (Clontech RNA) using the following oligonucleotides: 5′oligo: 5′-[…]-3′ (SEQ ID NO: 12) 3′oligo: 5′-[…]-3′ (SEQ ID NO: 13) and subsequently ligated into pGex 6P-1 Eco RI/Xho I sites.

[3] = molecular target: T3, PTP EPSILON (Homo sapiens, UniProt P23469); conditions: pNPP or FDP as substrate, 25° C.
T3 construct: made in house; host or cells: Sf-9 insect cells (pFastBac-G2T); a pGEX 6P-1 construct also existed
Experimental: as §1, §2, §3, §4, §5, §6
The PTPepsilon cDNA was amplified from human placenta single-strand cDNA (Clontech RNA) using the following oligonucleotides: 5′oligo: 5′-[…]-3′ (SEQ ID NO: 6) 3′oligo: 5′-[…]-3′ (SEQ ID NO: 7) After cloning this PCR product into the Bam HI/Xho I sites of pGEX 6P-1, this phosphatase was subcloned using the same restriction sites in pFastBac-G2T.

[4] = molecular target: T4, PTP MU (Homo sapiens, UniProt P28827)
T4 construct: made in house; host or cells: E. coli BL-21 (pGEX 6P-1)

[5] = molecular target: T5, PTP ALPHA (Homo sapiens, UniProt P18433); conditions: 25° C.
T5 construct: RTPα intracellular domain construct was obtained; made in house; host or cells: E. coli BL-21 (pGEX 3X)
Experimental: as §1, §2, §3, §4, §5, §6
RTPα intracellular domain construct was obtained, Schlessinger et al., U.S. Pat. No. 5,888,794, the contents of which are hereby incorporated in their entirety into the present application. The RTPα fragment was cloned into pGEX 3× using the following procedure. The portion from EclX I/Xma III/Eag I (N-terminus blunted by Klenow) to Eco RV was cloned into the Sma I site. The EclX I site is approximately 15 residues downstream of the transmembrane domain.

[6] = pNPP or FDP as substrate, read-out: PTP IC50 SHP2
[7] = pNPP or FDP as substrate, 25° C., read-out: PTP IC50 Mu

T4 sequence (P28827 831-1186 limits assumed): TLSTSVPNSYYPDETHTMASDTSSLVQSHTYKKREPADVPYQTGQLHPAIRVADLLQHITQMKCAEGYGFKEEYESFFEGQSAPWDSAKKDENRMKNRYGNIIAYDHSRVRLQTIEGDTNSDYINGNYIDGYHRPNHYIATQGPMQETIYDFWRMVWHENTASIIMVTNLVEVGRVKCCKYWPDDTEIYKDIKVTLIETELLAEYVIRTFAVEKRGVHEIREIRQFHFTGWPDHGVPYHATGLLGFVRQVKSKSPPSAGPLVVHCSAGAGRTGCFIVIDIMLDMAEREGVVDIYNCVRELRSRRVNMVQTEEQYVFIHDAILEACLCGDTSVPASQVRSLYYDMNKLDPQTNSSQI
T3 sequence (P23469 80-393 limits assumed): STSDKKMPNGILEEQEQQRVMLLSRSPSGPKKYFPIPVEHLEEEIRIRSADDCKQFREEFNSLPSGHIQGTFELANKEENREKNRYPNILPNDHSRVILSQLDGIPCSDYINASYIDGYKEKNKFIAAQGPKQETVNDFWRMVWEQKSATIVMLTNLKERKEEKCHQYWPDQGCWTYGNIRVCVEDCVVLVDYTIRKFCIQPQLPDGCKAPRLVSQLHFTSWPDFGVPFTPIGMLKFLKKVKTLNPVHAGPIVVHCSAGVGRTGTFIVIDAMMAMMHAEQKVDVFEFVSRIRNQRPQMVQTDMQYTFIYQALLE

IC50 [1, 6] | IC50 ([2]; read-out: PTP IC50 Sigma) | IC50 ([3]; read-out: PTP IC50 Epilson) | IC50 [4, 7] | IC50 [5] | Compound | IC50 ([1]; PTP IC50 SHP2, pNPP or FDP as substrate) | IC50 ([2]; PTP IC50 Sigma) | IC50 ([3]; PTP IC50 Epilson) | IC50 [4]
> 100 µM | > 71 µM | 41.4 µM | 48.8 µM | > 100 µM | CCNc1ccc(S(=O)(=O)C(F)(F)F)cc1NC(=O)Cc1ccc(S(C)(=O)=O)cc1 [Example 25, N-(2-Ethylamino-5-trifluoromethanesulfonyl-phenyl)-2-(4-methanesulfonyl-phenyl)-acetamide] |  |  |  | 
> 100 µM | 69 µM | 6.2 µM | 65 µM | > 100 µM | CCOC(=O)c1cc(Oc2ccc(S(=O)(=O)C(F)(F)F)cc2[N+](=O)[O-])c(C(=O)OCC)cc1O [Example 26, 2-Hydroxy-5-(2-nitro-4-trifluoromethanesulfonyl-phenoxy)-terephthalic acid diethyl ester] |  |  |  | 
> 100 µM | > 100 µM | 3.8 µM | > 100 µM | > 100 µM | O=C(O)Cc1ccccc1CC(=O)Nc1cccc(S(=O)(=O)C(F)(F)F)c1 [Example 27, {2-[(3-Trifluoromethanesulfonyl-phenylcarbamoyl)-methyl]-phenyl}-acetic acid] |  |  |  | 
17.9 µM | 45.1 µM | 3.1 µM | > 100 µM | 36.2 µM | O=C(O)Cc1cccc(CC(=O)Nc2cccc(S(=O)(=O)C(F)(F)F)c2)c1 [Example 28, {3-[(3-Trifluoromethanesulfonyl-phenylcarbamoyl)-methyl]-phenyl}-acetic acid] |  |  |  | 
37 µM | 60.6 µM | 26.1 µM | > 100 µM | 19.3 µM | O=C(O)Cc1ccc(CC(=O)Nc2cccc(S(=O)(=O)C(F)(F)F)c2)cc1 [Example 29, {4-[(3-Trifluoromethanesulfonyl-phenylcarbamoyl)-methyl]-phenyl}-acetic acid] |  |  |  | 

Further lines, the compound ahead of its results:

Compound | IC50 [1, 6] | IC50 ([2]; read-out: PTP IC50 Sigma) | IC50 ([3]; read-out: PTP IC50 Epilson) | IC50 [4, 7] | IC50 [5] | IC50 ([1]; PTP IC50 SHP2, pNPP or FDP as substrate) | IC50 ([2]; PTP IC50 Sigma) | IC50 ([3]; PTP IC50 Epilson) | IC50 [4]
O=[N+]([O-])c1cc(S(=O)(=O)C(F)(F)F)ccc1Oc1cc(CN2CCOCC2)c(Oc2ccc(S(=O)(=O)C(F)(F)F)cc2[N+](=O)[O-])cc1CN1CCOCC1 [Example 23, 3,6-Bis-(morpholin-4-ylmethyl)-2,5-bis-(2-nitro-4-trifluoromethanesulfonyl-phenoxy)-benzene] | 27.6 µM | 8.5 µM | 2.2 µM | 18.3 µM | > 100 µM |  |  |  | 
CN(C)CC(COc1ccc(S(=O)(=O)C(F)(F)F)cc1[N+](=O)[O-])Oc1ccc(S(=O)(=O)C(F)(F)F)cc1[N+](=O)[O-] (stereo not shown) [Example 24, [2,3-Bis-(2-nitro-4-trifluoromethanesulfonyl-phenoxy)-propyl]-dimethyl-amine] | > 100 µM | 53.5 µM | > 100 µM | > 100 µM | > 100 µM |  |  |  | 
NC(=O)c1cc(Oc2ccc(S(=O)(=O)C(F)(F)F)cc2[N+](=O)[O-])cc(Oc2ccc(S(=O)(=O)C(F)(F)F)cc2[N+](=O)[O-])c1 [Example 30, 3,5-Bis-(2-nitro-4-trifluoromethanesulfonyl-phenoxy)-benzamide] |  |  |  |  | > 100 µM | 52.8 µM | 26.5 µM | 4.3 µM | 28.4 µM
O=C(O)c1cc(Oc2ccc(S(=O)(=O)C(F)(F)F)cc2)cc(Oc2ccc(S(=O)(=O)C(F)(F)F)cc2)c1 [Example 31, 3,5-Bis-(4-trifluoromethanesulfonyl-phenoxy)-benzoic acid] | 5.7 µM | 7.7 µM | 1.8 µM | 8.7 µM | 6 µM |  |  |  | 
O=S(=O)(Nc1ccc(CCc2ccc(NS(=O)(=O)C(F)(F)F)cc2)cc1)C(F)(F)F [Example 66, 1,2-Bis(4-trifluoromethylsulfonamidophenyl)ethane] | 36.6 µM | > 100 µM | > 100 µM | 70.9 µM | > 100 µM |  |  |  | 
Cc1cc(NS(=O)(=O)C(F)(F)F)ccc1CCc1ccc(NS(=O)(=O)C(F)(F)F)cc1C [Example 67, 1,2-Bis(2-methyl-4-trifluoromethylsulfonamidophenyl)ethane] | 17 µM | 41.4 µM | 50.8 µM | 41.3 µM | 53.6 µM |  |  |  | 
CC(C)(COc1ccc(NS(=O)(=O)C(F)(F)F)cc1)COc1ccc(NS(=O)(=O)C(F)(F)F)cc1 [Example 68, 1,3-Bis(4-trifluoromethylsulfonamidophenoxy)-2,2-dimethylpropane] | 6.2 µM | 11.6 µM | 37 µM | 42 µM | 27 µM |  |  |  | 
O=S(=O)(Nc1ccc(OCCCOc2ccc(NS(=O)(=O)C(F)(F)F)cc2)cc1)C(F)(F)F [Example 69, 1,3-Bis(4-trifluoromethylsulfonamidophenoxy)propane] | 20.3 µM | 41.7 µM | 40.7 µM | 37 µM | 31 µM |  |  |  | 
O=S(=O)(Nc1ccc(OCCCCOc2ccc(NS(=O)(=O)C(F)(F)F)cc2)cc1)C(F)(F)F [Example 70, 1,4-Bis(4-trifluoromethylsulfonamidophenoxy)butane] | 17.1 µM | 38.1 µM | 48.4 µM | 65.3 µM | 46 µM |  |  |  | 

— patent US6596772B1, “Phosphate mimics and methods of treatment using phosphatase inhibitors” (Sugen, Inc., priority 1999, dated 2003)
